Experimental data published in patent US12447156B2, “Treating progressive familial intrahepatic cholestasis (PFIC) with IBAT inhibitors” (ALBIREO AB, priority 2020, dated 2025).

System: patients with PFIC
Assay: PEDFIC 2 open-label extension trial, interim analysis: safety (TEAEs)
Type: in vivo, human
Description: Study Design • This phase 3 study included a screening period (for newly enrolled patients [i.e., cohort 2] only) and a 72-week treatment period (FIG. 9) in which all patients received oral, once-daily odevixibat 120 μg/kg. • Patients returned to the clinic 4 and 12 weeks after the first dose of odevixibat and then approximately every 10 to 12 weeks thereafter. • Following the 72-week treatment period, patients either enrolled in an optional extension for continued treatment or returned for a follow-up visit 4 weeks after ending study drug. Outcomes, Assessments, and Statistical Analysis • The primary efficacy outcomes were to assess the effects of odevixibat on sBAs and pruritus, including mean changes and proportion of patients meeting response criteria. • sBA responders were defined as patients who achieved a normalization of sBAs or reduction of ≥70%. • Pruritus responders were defined as patients who achieved a ≥1-point drop on the pruritus assessment. • Secondary outcomes included characterizing the long-term safety and tolerability of odevixibat, as well as the effects of odevixibat on growth, biliary diversion and/or liver transplantation, and markers of cholestasis and liver disease. • For the P1O and PIP groups, there were 2 baselines (PEDFIC 1 baseline and PEDFIC 2 baseline); for those in cohort 2, baseline refers to the value prior to initiation of odevixibat in PEDFIC 2. • This interim analysis focuses on data collected after 24 weeks of treatment in PEDFIC 2. • T tests were used to calculate P values for primary outcomes in the P1O group only; other outcomes were summarized descriptively.

## CCCCC1(CCCC)CN(c2ccccc2)c2cc(SC)c(OCC(=O)N[C@@H](C(=O)N[C@@H](CC)C(=O)O)c3ccc(O)cc3)cc2S(=O)(=O)N1 [Odevixibat, 1,1-dioxo-3,3-dibutyl-5-phenyl-7-methylthio-8-(N-{(R)-α-[N-((S)-1-carboxypropyl)carbamoyl]-4-hydroxybenzyl}carbamoylmethoxy)-2,3,4,5-tetrahydro-1,2,5-benzothiadiazepine]
PEDFIC 2
  fat-soluble vitamin deficiencies refractory to clinically recommended vitamin supplementation: no new or worsening fat-soluble vitamin deficiencies
PEDFIC 2, Cohort 2, n = 16
  Any TEAE, patients: 8 (50.0) n (%)
  Drug-related TEAE by preferred term: Blood bilirubin increased: 3 (18.8) n (%)
  Drug-related TEAE by preferred term: Cough: 0 n (%)
  Drug-related TEAE by preferred term: Diarrhea: 0 n (%)
  Drug-related TEAE by preferred term: INR increased: 2 (12.5) n (%)
  Drug-related TEAE by preferred term: Pruritus: 0 n (%)
  Drug-related TEAE by preferred term: Pyrexia: 2 (12.5) n (%)
  Drug-related TEAE by preferred term: URTI: 0 n (%)
  Drug-related TEAEs, patients: 5 (31.3) n (%)
  Mild TEAE, patients: 2 (12.5) n (%)
  Moderate TEAE, patients: 3 (18.8) n (%)
  Serious TEAEs, patients: 1 (6.3) n (%)
  Severe TEAE, patients: 3 (18.8) n (%)
  TEAEs leading to discontinuation, patients: 2 (12.5) n (%)
PEDFIC 2, P1O, n = 34
  Any TEAE, patients: 28 (82.4) n (%)
  Drug-related TEAE by preferred term: Blood bilirubin increased: 4 (11.8) n (%)
  Drug-related TEAE by preferred term: Cough: 8 (23.5) n (%)
  Drug-related TEAE by preferred term: Diarrhea: 6 (17.6) n (%)
  Drug-related TEAE by preferred term: INR increased: 2 (5.9) n (%)
  Drug-related TEAE by preferred term: Pruritus: 4 (11.8) n (%)
  Drug-related TEAE by preferred term: Pyrexia: 7 (20.6) n (%)
  Drug-related TEAE by preferred term: URTI: 9 (26.5) n (%)
  Drug-related TEAEs, patients: 10 (29.4) n (%)
  Mild TEAE, patients: 17 (50.0) n (%)
  Moderate TEAE, patients: 10 (29.4) n (%)
  Serious TEAEs, patients: 0 n (%)
  Severe TEAE, patients: 1 (2.9) n (%)
  TEAEs leading to discontinuation, patients: 0 n (%)
PEDFIC 2, P1P, n = 19
  Any TEAE, patients: 14 (73.7) n (%)
  Drug-related TEAE by preferred term: Blood bilirubin increased: 2 (10.5) n (%)
  Drug-related TEAE by preferred term: Cough: 2 (10.5) n (%)
  Drug-related TEAE by preferred term: Diarrhea: 1 (5.3) n (%)
  Drug-related TEAE by preferred term: INR increased: 2 (10.5) n (%)
  Drug-related TEAE by preferred term: Pruritus: 2 (10.5) n (%)
  Drug-related TEAE by preferred term: Pyrexia: 4 (21.1) n (%)
  Drug-related TEAE by preferred term: URTI: 5 (26.3) n (%)
  Drug-related TEAEs, patients: 5 (26.3) n (%)
  Mild TEAE, patients: 6 (31.6) n (%)
  Moderate TEAE, patients: 7 (36.8) n (%)
  Serious TEAEs, patients: 3 (15.8) n (%)
  Severe TEAE, patients: 1 (5.3) n (%)
  TEAEs leading to discontinuation, patients: 1 (5.3) n (%)
PEDFIC 2, laboratory assessments
  mean serum chemistry, hematology, urinalysis, international normalized ratio values: No clinically significant changes or safety signals
PEDFIC 2, of 50 patients overall with any TEAE
  patients reporting mild/moderate TEAEs: 45 patients
PEDFIC 2 overall
  rate of discontinuations due to TEAEs: < 30
PEDFIC 2 overall (69 patients)
  patients overall with any TEAE: 50 patients
PEDFIC 2 overall, 7 patients, through week 24
  incidence of diarrhea: 10.1%
PEDFIC 2 through week 24
  deaths or drug-related serious TEAEs: no deaths or drug-related serious TEAEs occurred
PEDFIC 2 through week 24, 120 μg/kg/day
  tolerability: generally well tolerated
